Common to all, as to assay: inhibition of tumour cell growth, NCI panel, 48 h
Experiment [1] has as its system A549.
Experiment [2] concerns EKVX.
Experiment [3] concerns HCT-15.
Experiment [4] concerns KM12.
Experiment [5] relates to M14.
The subject of experiment [6] is MDA-MB-231.
Experiment [7] relates to MDA-MB-435.
The test system of experiment [8] is MDA-N.
Experiment [9] has as its system NCI-H226.
Experiment [10] deals with OVCAR-4.
In experiment [11] the test system is SF-295.
The subject of experiment [12] is SK-MEL-28.
The subject of experiment [13] is SK-OV-3.
In experiment [14] the test system is SN12C.
Experiment [15] concerns SNB-19.
The test system of experiment [16] is SNB-75.
For experiment [17], the system named is TK-10.
For experiment [18], the system named is CAKI-1.
In experiment [19] the test system is SK-MEL-2.

Where a name gives a salt, the structure may show the parent alone.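 Growth conditions: 96-well plates. Treatment: test compound, 48 hours, 5 concentrations. Analysis: linear interpolation between bracketing concentrations; unreached endpoints set to highest concentration. The concentration for 50% growth inhibition is given as GI50.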 Activity calls are given as the source filed them. Rule as the data show it: active = GI50 up to about 1.1 µM and inactive = higher.

As for `O=C(Nn1c(-c2ccccc2)nc2ccccc2c1=O)c1ccc([N+](=O)[O-])cc1`, the GI50 in experiment [1] is > 100 µM (inactive); in experiment [2] it was > 100 µM (inactive); in experiment [3], greater than 100 µM; in experiment [4] it was > 100 µM (inactive); in [5], > 100 µM (inactive); in experiment [6] it was > 100 µM (inactive). Further, the GI50 in experiment [7] was > 100 µM (inactive); in experiment [8] it was > 100 µM (inactive); in experiment [9], 46.3 µM (inactive); in experiment [10], > 100 µM (inactive); in [11], > 100 µM (inactive); in [12], 72.3 µM (inactive). The GI50 in experiment [13], in [14], in experiment [15], in experiment [16] and in experiment [17] was > 100 µM (inactive) each time.
Regarding `CC(=O)NNc1nc(C)c(C(=O)/C=C/C=C/c2ccccc2)s1`, the GI50 was > 100 µM (inactive) in experiment [18]; 24.2 µM (inactive) in experiment [2]; greater than 100 µM in [3]; 29.6 µM (inactive) in [4]; 48.9 µM (inactive) in experiment [5]; 65.5 µM (inactive) in [6]. The GI50 in [7], in [8], in experiment [9], in [10], in [11] and in experiment [12] was > 100 µM (inactive) each time. For the same molecule, the GI50 in experiment [13], in [14], in experiment [15], in experiment [16] and in experiment [17] was > 100 µM (inactive) each time.
On to `N#CC(C#N)/N=C/c1ccncc1`, for which the GI50 was > 100 µM (inactive) in experiment [1]; > 100 µM (inactive) in experiment [18]; > 100 µM (inactive) in experiment [2]; greater than 100 µM in [3]; > 100 µM (inactive) in experiment [4]; > 100 µM (inactive) in experiment [5]. Besides, the GI50 in experiment [6], in [7], in experiment [8], in experiment [9], in [10] and in [11] was > 100 µM (inactive) throughout. Further, the GI50 in [12], in experiment [19], in [13], in [14], in experiment [16] and in experiment [17] was > 100 µM (inactive) each time.
As to `O=c1[nH]c(=O)n(C2OC(CO)C(O)C2O)c2ccsc12` (configuration not stated), the GI50 in [1] was > 100 µM (inactive); in experiment [18] it was > 100 µM (inactive); in experiment [2], > 100 µM (inactive); in experiment [3], greater than 100 µM; in experiment [4], > 100 µM (inactive); in experiment [5] it was > 100 µM (inactive). The GI50 in experiment [6], in experiment [7], in [8], in experiment [9], in [10] and in experiment [11] was > 100 µM (inactive) throughout. Moreover, the GI50 in experiment [12], in experiment [19], in [14], in experiment [16] and in [17] was > 100 µM (inactive) throughout.
Consider `Cc1ccc(-n2cc(-c3ccc(Cl)cc3)c(C#N)c2N)cc1`, for which the GI50 in [1] is 17.4 µM (inactive); in experiment [18], 21.2 µM (inactive); in experiment [2], 15.2 µM (inactive); in experiment [3], 12.1 µM; in [5] it was 15.3 µM (inactive); in experiment [6], 14.7 µM (inactive). For the same molecule, the GI50 was 17.3 µM (inactive) in experiment [7]; 18.5 µM (inactive) in [8]; 12.8 µM (inactive) in experiment [9]; 14.3 µM (inactive) in experiment [10]; 17.5 µM (inactive) in experiment [11]; 18.1 µM (inactive) in experiment [12]. For the same molecule, the GI50 in experiment [19] is 15.2 µM (inactive); in [13], 20.7 µM (inactive); in [14], 14.8 µM (inactive); in [15] it was 17.3 µM (inactive); in experiment [16], 20.3 µM (inactive); in experiment [17], 14.7 µM (inactive).
As to `CCOC(=O)CCC(NC(=O)N1CCN(c2c(C)nc(C)nc2O)CC1)C(=O)OCC` (configuration not stated), the GI50 in experiment [1] is > 100 µM (inactive); in experiment [18] it was > 100 µM (inactive); in experiment [2], > 100 µM (inactive); in experiment [3], greater than 100 µM; in [4], > 100 µM (inactive); in experiment [5] it was > 100 µM (inactive). Moreover, the GI50 in [6], in experiment [7], in [8], in experiment [9], in experiment [10] and in experiment [11] was > 100 µM (inactive) in each case. The GI50 is > 100 µM (inactive) in [12]; > 100 µM (inactive) in experiment [13]; > 100 µM (inactive) in experiment [14]; > 100 µM (inactive) in experiment [15]; < 0.01 µM (active) in experiment [16]; > 100 µM (inactive) in experiment [17].
With `N#Cc1c(O)n(-c2ccccc2)c(=O)c2c(N)n[nH]c12`, the GI50 in [1] was > 100 µM (inactive); in [18], 95.1 µM (inactive); in [2] it was > 100 µM (inactive); in experiment [3], greater than 100 µM; in experiment [4] it was 42.4 µM (inactive); in experiment [5] it was > 100 µM (inactive). Moreover, the GI50 in [6], in [7], in experiment [8], in [9], in experiment [10] and in experiment [12] was > 100 µM (inactive) throughout. Further, the GI50 in experiment [19], in experiment [13], in experiment [14], in [15], in experiment [16] and in experiment [17] was > 100 µM (inactive) each time.
For the molecule `CC1=NC(=Cc2ccc(O)cc2)C(=O)N1n1c(-c2ccccc2)nc2ccccc2c1=O`, the GI50 in experiment [1] was > 100 µM (inactive); in experiment [18] it was > 100 µM (inactive); in experiment [2], > 100 µM (inactive); in [3], greater than 100 µM; in [4] it was > 100 µM (inactive); in experiment [5], > 100 µM (inactive). For the same molecule, the GI50 in experiment [6], in experiment [7], in experiment [8], in [9], in experiment [11] and in experiment [12] was > 100 µM (inactive) in each case. For the same molecule, the GI50 in experiment [13], in experiment [14], in [15], in experiment [16] and in experiment [17] was > 100 µM (inactive) each time.
`O=C1C=C(c2ccccc2)O/C1=C/C(=O)c1ccc(Cl)cc1`: the GI50 in experiment [18] is 14 µM (inactive); in [2], 90.4 µM (inactive); in [3], 22 µM; in experiment [4] it was 20.8 µM (inactive); in [5], 19 µM (inactive); in experiment [6], 17.2 µM (inactive). The GI50 in experiment [7] is 15.2 µM (inactive); in experiment [8], 16.1 µM (inactive); in experiment [9] it was > 10 µM (inactive); in [10], 15.6 µM (inactive); in experiment [12], 18 µM (inactive); in experiment [13], 36.1 µM (inactive). The GI50 in [14] is 16 µM (inactive); in [15], 35.5 µM (inactive); in [16], 10.6 µM (inactive); in [17], 20.2 µM (inactive).
`CCN(CC)CC(O)C1CCC(c2ccccc2)CC1` (configuration not stated): the GI50 in experiment [1] was 32.6 µM (inactive); in experiment [18], 19 µM (inactive); in experiment [2], 0.437 µM (active); in experiment [3] it was 13.2 µM; in [4] it was 24 µM (inactive); in [5] it was 25.1 µM (inactive). For the same molecule, the GI50 was 17.1 µM (inactive) in experiment [6]; 17.1 µM (inactive) in experiment [7]; 16.3 µM (inactive) in [8]; 15.8 µM (inactive) in experiment [9]; 17.1 µM (inactive) in [11]; 25.6 µM (inactive) in [12]. Further, the GI50 is 16.7 µM (inactive) in experiment [19]; 16.1 µM (inactive) in experiment [13]; 39.7 µM (inactive) in experiment [14]; 25.8 µM (inactive) in experiment [15]; 23.7 µM (inactive) in experiment [16]; 15.3 µM (inactive) in experiment [17].
Take `NCCS` [CYSTEAMINE HYDROCHLORIDE]: the GI50 in experiment [1] is > 100 µM (inactive); in [18], > 100 µM (inactive); in [2] it was > 100 µM (inactive); in experiment [3], greater than 100 µM; in experiment [4], > 100 µM (inactive); in experiment [5], > 100 µM (inactive). Also, the GI50 in [6], in [7], in experiment [8], in [9], in experiment [10] and in [11] was > 100 µM (inactive) each time. Besides, the GI50 in experiment [12], in [19], in experiment [14], in experiment [15], in experiment [16] and in [17] was > 100 µM (inactive) in each case.
